This passage reports IC50 results from PMC2709467, “Synthesis of Novel 3-Aryl-N-Methyl-1,2,5,6-Tetrahydropyridine Derivatives by Suzuki coupling: As Acetyl Cholinesterase Inhibitors” (The Open Medicinal Chemistry Journal, 2007).

Structures are written as SMILES. Where two headings read alike, the source gives them in different places.

For one test, the target named is T1, Electric eel AChE (Electrophorus electricus, UniProt O42275).
T1 construct: native commercial enzyme from Sigma, no further details
Put plainly: Ellman assay, […] nm. Type of test: biochemical. (In Ellman's method for cholinesterases, released thiocholine reacts with DTNB.)

The next test deals with T2, Human Serum AChE.
T2 construct: crude supernatant of citrated fresh blood (plasma), not purified
Put plainly: Ellman assay, […] nm. Type of test: biochemical. As to conditions: acetylthiocholine iodide substrate, phosphate buffer pH 8.0, 37 °C, 10 min preincubation.

Setting [1] is: acetylthiocholine iodide substrate, phosphate buffer pH 8.0, 37 °C, 10 min preincubation; read-out: Electric eel AChE, IC50 nM.

T1 sequence (O42275 24-633): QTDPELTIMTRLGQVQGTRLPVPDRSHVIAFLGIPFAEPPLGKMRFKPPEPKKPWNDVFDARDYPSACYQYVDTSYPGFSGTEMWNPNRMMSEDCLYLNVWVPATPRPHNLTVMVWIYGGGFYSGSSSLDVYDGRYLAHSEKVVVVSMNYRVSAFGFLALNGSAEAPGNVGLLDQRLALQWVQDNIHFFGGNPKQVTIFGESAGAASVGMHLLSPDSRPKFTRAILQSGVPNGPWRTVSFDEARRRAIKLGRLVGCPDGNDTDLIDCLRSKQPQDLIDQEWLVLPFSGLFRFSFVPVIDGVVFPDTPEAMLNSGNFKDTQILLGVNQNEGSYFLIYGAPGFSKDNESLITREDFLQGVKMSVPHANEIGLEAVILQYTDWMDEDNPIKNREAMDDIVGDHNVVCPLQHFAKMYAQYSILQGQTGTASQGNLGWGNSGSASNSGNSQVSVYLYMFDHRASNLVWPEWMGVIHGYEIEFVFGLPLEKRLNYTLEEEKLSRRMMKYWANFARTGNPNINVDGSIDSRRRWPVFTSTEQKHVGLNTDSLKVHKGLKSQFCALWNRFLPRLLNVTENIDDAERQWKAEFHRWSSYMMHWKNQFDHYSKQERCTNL

With `CN1CCC=C(c2ccc(C(F)(F)F)cc2)C1` [5a, 3-[4-(trifluoromethyl)phenyl]-1,2,5,6-tetrahydro-1-methylpyridine], the IC50 – broadly, the concentration that inhibits the measured activity by half – at Electric eel AChE (setting [1]) is 49.5 nM; in the test on Human Serum AChE, 52 nM. On to `CN1CCC=C(c2ccc(C#N)cc2)C1` [5b, 3-(4-cyanophenyl)-1,2,5,6-tetrahydro-1-methylpyridine], for which the values for the IC50 on Electric eel AChE (setting [1]) and in the test with Human Serum AChE were 64 nM and 68 nM, respectively. The like results for `CN1CCC=C(c2ccc(Cl)cc2)C1` [5d, 3-(4-chlorophenyl)-1,2,5,6-tetrahydro-1-methylpyridine] were, in that order, 806 nM and 784 nM. Turning to `COc1ccc(C2=CCCN(C)C2)cc1` [5e, 3-(4-methoxyphenyl)-1,2,5,6-tetrahydro-1-methylpyridine], 2880 nM corresponded to half-maximal inhibition with Human Serum AChE (IC50). Regarding `CN1CCC=C(c2c(Cl)cccc2Cl)C1` [5f, 3-(2,6-dichlorophenyl)-1,2,5,6-tetrahydro-1-methylpyridine], the IC50 at Electric eel AChE (setting [1]) was determined as 678 nM; in the test with Human Serum AChE it was 729 nM.

With `CN1CCC=C(c2ccc(Oc3ccccc3)cc2)C1` [5g, 3-(4-phenoxyphenyl)-1,2,5,6-tetrahydro-1-methylpyridine], the IC50 worked out at 1230 nM at Electric eel AChE (setting [1]) and 1350 nM in the test with Human Serum AChE.

Consider `CN1CCC=C(c2ccc(-c3ccccc3)c(F)c2)C1` [5h, 3-(2-fluoro-biphenyl-4-yl)-1-methyl-1,2,5,6-tetrahydropyridine], for which the IC50 came to 118 nM on Electric eel AChE (setting [1]) and 116 nM in the test with Human Serum AChE.

Regarding `CCOc1cccc(C2=CCCN(C)C2)c1` [5j, 3-(3-ethoxyphenyl)-1,2,5,6-tetrahydro-1-methylpyridine], the IC50 on Electric eel AChE (setting [1]) was found to be 1230 nM; in the test with Human Serum AChE it was 1220 nM.

Turning to `CN1CCC=C(c2cccc(Cl)c2F)C1` [5k, 3-(3-chloro-2-fluoro-phenyl)-1-methyl-1,2,5,6-tetrahydropyridine], the IC50 was found to be 182 nM on Electric eel AChE (setting [1]) and 170 nM in the test with Human Serum AChE. Regarding `CN(C)C(=O)Oc1cccc([N+](C)(C)C)c1` [Neostigmine, reference compound], the IC50 at Electric eel AChE (read-out: Electric eel AChE, IC50 nM; acetylthiocholine iodide substrate, phosphate buffer pH 8.0, 37 °C, 10 min preincubation) amounted to 36.5 nM; in the test on Human Serum AChE, 39.2 nM.
